According to US20040023994A1 (priority 2002, published 2004):
Where two headings read alike, the source gives them in different places.

Legend:
SK-OV-3 = settings: for CC50: read-out: LC50
OVCAR-4 = settings: for CC50: read-out: LC50
IGR-OV1 = settings: for CC50: read-out: LC50
SF-268 = settings: for CC50: read-out: LC50
786-0 = settings: for CC50: read-out: LC50
HCT-116 = settings: for CC50: read-out: LC50
HS 578T = settings: 48 h; for CC50: read-out: LC50
UACC-257 = settings: for CC50: read-out: LC50
UACC-62 = settings: for CC50: read-out: LC50
SK-MEL-28 = settings: for CC50: read-out: LC50
[1] = Homo sapiens, 48 h, read-out: LC50

## CC(=O)C=CSc1ncnc2nc[nH]c12 [cis-AVTP, 6-(2-acetylvinylthio) purine]
SK-OV-3; Homo sapiens, SK-OV-3, 48 h
  GI50: 0.11 µM
  CC50: 33.3 µM
SK-OV-3; SK-OV-3, Ovarian, 48 h
  TGI: 5.04 µM
LOX IMVI; Homo sapiens, 48 h
  GI50: 0.03 µM
LOX IMVI; [1]
  CC50: > 100 µM
LOX IMVI; Melanoma, 48 h
  TGI: 2.23 µM
OVCAR-4; Homo sapiens, OVCAR-4, 48 h
  GI50: 0.51 µM
  CC50: 25.6 µM
OVCAR-4; OVCAR-4, Ovarian, 48 h
  TGI: 4.06 µM
IGR-OV1; Homo sapiens, IGROV-1, 48 h
  GI50: 2 µM
  CC50: 29.8 µM
IGR-OV1; IGR-OV1, Ovarian, 48 h
  TGI: 7.72 µM
SF-268; Homo sapiens, SF-268, 48 h
  GI50: < 0.01 µM
  CC50: 27.7 µM
SF-268; SF-268, CNS, 48 h
  TGI: 0.24 µM
786-0; 786-0, Renal, 48 h
  TGI: 3.48 µM
786-0; Homo sapiens, 786-0, 48 h
  GI50: 0.37 µM
  CC50: 24.9 µM
SR; Homo sapiens, 48 h
  GI50: 0.17 µM
SR; [1]
  CC50: > 100 µM
SR; Leukemia, 48 h
  TGI: >100 µM
HCT-116; HCT-116, Colon, 48 h
  TGI: 1.89 µM
HCT-116; Homo sapiens, HCT-116, 48 h
  GI50: 0.51 µM
  CC50: 4.73 µM
HS 578T; HS 578T, Breast
  TGI: 8.79 µM
HS 578T; Homo sapiens, Hs-578T
  GI50: 0.46 µM
  CC50: > 100 µM
UACC-257; Homo sapiens, UACC-257, 48 h
  GI50: 2.4 µM
  CC50: > 100 µM
UACC-257; UACC-257, Melanoma, 48 h
  TGI: 27.4 µM
UACC-62; Homo sapiens, UACC-62, 48 h
  GI50: 0.23 µM
  CC50: 5.88 µM
UACC-62; UACC-62, Melanoma, 48 h
  TGI: 1.10 µM
SK-MEL-28; Homo sapiens, SK-MEL-28, 48 h
  GI50: 1.84 µM
  CC50: 9.58 µM
SK-MEL-28; SK-MEL-28, Melanoma, 48 h
  TGI: 4.19 µM

## CC(=O)C=CSc1nc(N)nc2nc[nH]c12 [trans-AVTG, 6-(2-acetylvinylthio) guanine]
SK-OV-3; SK-OV-3, Ovarian, 48 h
  GI50: 0.24 µM
  TGI: 0.78 µM
  CC50: > 100 µM
LOX IMVI; Melanoma, 48 h
  GI50: 0.2 µM
  TGI: 2.39 µM
LOX IMVI; read-out: LC50, Melanoma, 48 h
  CC50: 82.5 µM
OVCAR-4; OVCAR-4, Ovarian, 48 h
  GI50: 2.46 µM
  TGI: 17.0 µM
  CC50: 45.1 µM
IGR-OV1; IGR-OV1, Ovarian, 48 h
  GI50: 0.03 µM
  TGI: 0.08 µM
  CC50: 7.86 µM
SF-268; SF-268, CNS, 48 h
  GI50: < 0.01 µM
  TGI: 0.43 µM
  CC50: 24.4 µM
786-0; 786-0, Renal, 48 h
  GI50: 0.98 µM
  TGI: 21.9 µM
  CC50: > 100 µM
SR; Leukemia, 48 h
  GI50: 0.09 µM
  TGI: 10.2 µM
SR; read-out: LC50, Leukemia, 48 h
  CC50: > 100 µM
HCT-116; HCT-116, Colon, 48 h
  GI50: 0.67 µM
  TGI: 3.01 µM
  CC50: 14.7 µM
HS 578T; HS 578T, Breast
  GI50: 1.78 µM
  TGI: 26.9 µM
  CC50: > 100 µM
UACC-257; UACC-257, Melanoma, 48 h
  GI50: 11.6 µM
  TGI: >100 µM
  CC50: > 100 µM
UACC-62; UACC-62, Melanoma, 48 h
  GI50: 0.28 µM
  TGI: 0.93 µM
  CC50: 24.9 µM
SK-MEL-28; SK-MEL-28, Melanoma, 48 h
  GI50: 11.6 µM
  TGI: 24.8 µM
  CC50: 52.7 µM
